Measurements: BigSolDB 2.1

CC(C)(C)OC(=O)N[C@@H](CCCN=C(N)N[N+](=O)[O-])C(=O)O
solubility (mole fraction)
Settings | 283.15 K | 288.15 K | 293.15 K | 298.15 K | 303.15 K | 308.15 K | 313.15 K | 318.15 K | 323.15 K
in DMF | 0.164 | 0.185 | 0.211 | 0.246 | 0.29 | 0.346 | 0.415 | 0.505 | 0.62
in acetonitrile | 0.0012 | 0.00144 | 0.00168 | 0.00193 | 0.00222 | 0.00262 | 0.00324 | 0.00392 | 0.00491
in ethanol | 0.015 | 0.0188 | 0.0234 | 0.0282 | 0.0327 | 0.0391 | 0.0469 | 0.0563 | 0.0666
in ethyl acetate | 0.000705 | 0.000846 | 0.000955 | 0.00104 | 0.00114 | 0.0013 | 0.00147 | 0.00161 | 0.00187
in isobutanol | 0.00231 | 0.00296 | 0.00394 | 0.00499 | 0.00618 | 0.00799 | 0.00954 | 0.0112 | 0.0143
in isopropanol | 0.00489 | 0.0067 | 0.00844 | 0.0102 | 0.0127 | 0.0152 | 0.0184 | 0.0224 | 0.0267
in methanol | 0.042 | 0.0507 | 0.0601 | 0.0692 | 0.0752 | 0.0824 | 0.0908 | 0.0976 | 0.111
in n-butanol | 0.00377 | 0.00498 | 0.00583 | 0.00707 | 0.00842 | 0.00996 | 0.0121 | 0.0142 | 0.0172
in n-pentanol | 0.00254 | 0.00351 | 0.0042 | 0.00489 | 0.00595 | 0.00735 | 0.00886 | 0.0106 | 0.013
in n-propanol | 0.00543 | 0.00744 | 0.00919 | 0.0114 | 0.0132 | 0.0161 | 0.0195 | 0.0236 | 0.0285
in sec-butanol | 0.00398 | 0.00546 | 0.00729 | 0.00896 | 0.0113 | 0.0138 | 0.0162 | 0.0192 | 0.0222
in water | 0.000283 | 0.000334 | 0.000356 | 0.000404 | 0.000471 | 0.000522 | 0.000643 | 0.000799 | 0.000986
